From patent US20100267796A1, “THERAPEUTIC AGENT FOR IRRITABLE BOWEL SYNDROME” (KYOWA HAKKO KOGYO CO., LTD., priority 2006, published 2010) come the findings set out here.

Experiment [1] deals with restraint stress-induced defecation. Nature of the experiment: Action on restraint stress-induced defecation. Particulars: measured 1 hour after stress initiation, rats. Format: in vivo, male Wistar rats. How it is done:
An experiment was carried out according to the method of Kishibayashi et al. [Japanese Journal of Pharmacology, Vol. 69, No. 4, pp. 495-502 (1993)]. In the experiment, male Wistar rats aged 6 to 7 weeks (supplied from Charles River Laboratories Japan, Inc.) were used. […] The rats were lightly anesthetized with diethyl ether, and the thoracic trunk and the forelimbs were wrapped with a tape to produce mild stress. One hour after stress initiation, the wet weight of fecal pellets was measured. Each drug solution was orally administered 1 hour before restraint stress. A test compound was suspended at a concentration of 2 mg/mL in an aqueous solution of 0.5 w/v % methyl cellulose 400 cP and orally administered at a volume of 5 mL/kg (at a dose of 10 mg/kg). In a control, an aqueous solution of 0.5 w/v % methyl cellulose 400 cP was administered. Ten rats were used in each group. […] YM060, a serotonin 5-HT3 receptor antagonist [The Journal of Pharmacology and Experimental Therapeutics, Vol. 259, No. 2, pp. 815-819 (1991), Astellas Pharma. Inc., online, internet (URL: […].com/jp/companry/news/2006/pdf/060131.pdf)], which is being applied as a therapeutic agent for irritable bowel syndrome, was administered at a dose of 0.1 mg/kg.

Experiment [2] deals with adenosine uptake in HEK293 cells. Nature of the experiment: Adenosine uptake inhibitory activity in HEK293 cells ([3H]adenosine uptake). Format: cell-based. The note with it: for activity at 0.05 µM: 50 nmol/L compound, n=2; for activity at 0.5 µM: 500 nmol/L compound. Here is the method: A test was conducted according to the method of Leung et al. [Biochemical Pharmacology, Vol. 70, pp. 355-362 (2005)]. HEK293 cells (ATCC, Registration No. CRL-1537) were subcultured in a Dulbecco's modified Eagle's medium (manufactured by Invitrogen Corporation) containing 10% of fatal calf serum in a CO2 incubator using a poly-L-lysine-coated 10-cm dish (manufactured by Asahi Techno Glass Corporation). The cultured cells were seeded in a poly-L-lysine-coated 24-well plate (manufactured by Asahi Techno Glass Corporation) and cultured until the cells become confluent. […] After incubation at room temperature for 15 minutes, 0.2 mL of a Na^+-free buffer containing 100 nmol/L of [^3H] adenosine (manufactured by GE Health Care Bioscience Corporation) and each compound at each of 50 nmol/L and 500 nmol/L was added to each well. After 1 minute, the reaction solution was removed with an aspirator, and the wells were washed twice with 0.5 mL of ice-cooled PBS (phosphate-buffered saline). Then, 0.5 mL of PBS containing 5% Triton X-100 was added to each well, and the cells were scraped with a scraper. The solution in each well was homogenized by passing through a 20 G injection needle ten times and transferred to a scintillation vial containing 4 mL of clear sol (manufactured by Nacalai Tesque Inc.). Further, the wells were washed with 0.5 mL of PBS containing 5% Triton X-100, and the washing solution was added to the same vial. After sufficient agitation, radioactivity was measured using a liquid scintillation counter (Aloka Co., Ltd., LSC-3500). A relative value to 100% of an uptake of a control was indicated by percentage.

[3] abbreviates: 10 mg/kg p.o. 1 hour before restraint stress, n=10, control of each sub-table 1.06-1.71 g.
Setting [4] is: Homo sapiens, 1 min, [3H]adenosine uptake relative to 100% of control, HEK293 cells.
Setting [5] is: 300 mg/kg p.o. 1 hour before restraint stress.

For the compound `O=C(CC(O)(C(F)(F)F)C(F)(F)F)Nc1cccc2c1C(=O)c1sccc1CS2(=O)=O` [Compound 1-2], the “Wet weight of fecal pellets” value in experiment [1] (setting [3]) is 0.78 ± 0.25 g. For the same compound, in experiment [2] (setting [4]), the activity at 0.05 µM turned out to be 39% and the activity at 0.5 µM was 17%.
As to `CCC(O)(CC)C(=O)Nc1cccc2c1C(=O)c1sccc1CS2(=O)=O` [Compound 1-4, 5,5-Dioxo-9-(2-ethyl-2-hydroxybutanoylamino)-4,10-dihydrothieno[3,2-c][1]benzothiepin-10-one], the “Wet weight of fecal pellets” value in experiment [1] (setting [3]) was determined as 0.44 ± 0.19 g. In experiment [2] (setting [4]), this compound registered an activity at 0.05 µM of 73% and an activity at 0.5 µM of 34%.
In the case of `CC(C)(C)C(=O)Nc1cccc2c1C(=O)c1sccc1CS2(=O)=O` [Compound 1-5], the “Wet weight of fecal pellets” value in experiment [1] (setting [3]) is reported as 0.97 ± 0.16 g. Moreover, in experiment [2] (setting [4]), the activity at 0.05 µM was determined as 90% and the activity at 0.5 µM stood at 55%.
The corresponding values for `CCOC(=O)Nc1cccc2c1C(=O)c1sccc1CS2(=O)=O` [Compound 1-6] are 0.31 ± 0.06 g, 89% and 68%.
The corresponding values for `O=C(Nc1cccc2c1C(=O)c1sccc1CS2(=O)=O)c1cc(Cl)ccc1O` [Compound 1-7] are 0.59 ± 0.12 g, 74% and 35%.
Turning to `O=C(Nc1cccc2c1C(=O)c1sccc1CS2(=O)=O)c1ccco1` [Compound 1-8], the “Wet weight of fecal pellets” value in experiment [1] (setting [3]) is given as 0.66 ± 0.12 g. In addition, in experiment [2] (setting [4]), the activity at 0.05 µM is 79% and the activity at 0.5 µM was found to be 44%.
Consider `Cc1cc(C(=O)Nc2cccc3c2C(=O)c2sccc2CS3(=O)=O)[nH]n1` [Compound 1-9, 5,5-Dioxo-9-[(5-methylpyrazol-3-ylcarbonyl)amino]-4,10-dihydrothieno[3,2-c][1]benzothiepin-10-one], for which the “Wet weight of fecal pellets” value in experiment [1] (setting [3]) came out at 0.39 ± 0.18 g. In addition, in experiment [2] (setting [4]), the activity at 0.05 µM came out at 62% and the activity at 0.5 µM was determined as 26%.
In the case of `CC(=O)C(C)(C)C(=O)Nc1cccc2c1C(=O)c1sccc1CS2(=O)=O` [Compound 1-10, 5,5-Dioxo-9-(2,2-dimethyl-3-oxobutanoylamino)-4,0-dihydrothieno[3,2-c][1]benzothiepin-10-one], in experiment [2] (setting [4]), the activity at 0.05 µM came to 94% and the activity at 0.5 µM is 63%.
In experiment [2] (setting [4]), `O=C1c2sccc2CS(=O)(=O)c2cccc(NC(=O)C(O)C(F)(F)F)c21` (stereo not shown) [Compound 1-11, 5,5-Dioxo-9-(2-hydroxy-3,3,3-trifluoropropanoylamino)-4,10-dihydrothieno[3,2-c][1]benzothiepin-10-one] returned an activity at 0.05 µM of 82% and an activity at 0.5 µM of 46%.
Regarding `CC(O)(C(=O)Nc1ccc(F)c2c1C(=O)c1sccc1CS2(=O)=O)C(F)(F)F` (stereo not shown) [Compound 3-1], the “Wet weight of fecal pellets” value in experiment [1] (setting [3]) came to 0.41 ± 0.16 g. In experiment [2] (setting [4]), the activity at 0.05 µM worked out at 96% and the activity at 0.5 µM was 63%.
Take `CC(O)(C(=O)Nc1ccc(Cl)c2c1C(=O)c1sccc1CS2(=O)=O)C(F)(F)F` (stereo not shown) [Compound 3-2]: the “Wet weight of fecal pellets” value in experiment [1] (setting [3]) was 0.53 ± 0.14 g.
In the case of `CC(O)(C(=O)Nc1ccc(Br)c2c1C(=O)c1sccc1CS2(=O)=O)C(F)(F)F` (stereo not shown) [Compound 3-3, 6-Bromo-5,5-dioxo-9-(3,3,3-trifluoro-2-hydroxy-2-methylpropanoylamino)-4,10-dihydrothieno[3,2-c][1]benzothiepin-10-one], in experiment [1] (setting [3]), the “Wet weight of fecal pellets” value came to 0.81 ± 0.22 g.
`Cc1ccc(NC(=O)C(C)(O)C(F)(F)F)c2c1S(=O)(=O)Cc1ccsc1C2=O` (stereo not shown) [Compound 3-4]: the “Wet weight of fecal pellets” value in experiment [1] (setting [3]) amounted to 0.67 ± 0.19 g. In experiment [2] (setting [4]), this compound yielded an activity at 0.05 µM of 71% and an activity at 0.5 µM of 41%.
In experiment [2] (setting [4]), `COc1ccccc1CNc1cccc2c1C(=O)c1sccc1CS2(=O)=O` [Compound 5-4, 5,5-Dioxo-9-(2-methoxybenzylamino)-4,10-dihydrothieno[3,2-c][1]benzothiepin-10-one] came in with an activity at 0.05 µM of 72% and an activity at 0.5 µM of 42%.
The corresponding values for `CCOC(=O)CNc1cccc2c1C(=O)c1sccc1CS2(=O)=O` [Compound 5-5, 5,5-Dioxo-9-ethoxycarbonylmethylamino-4,10-dihydrothieno[3,2-c][1]benzothiepin-10-one] are 98% and 68%.
On to `CCOC(=O)C(C)Nc1cccc2c1C(=O)c1sccc1CS2(=O)=O` (stereo not shown) [Compound 5-6, 5,5-Dioxo-9-[1-(ethoxycarbonyl)ethylamino]-4,10-dihydrothieno[3,2-c][1]benzothiepin-10-one], for which, in experiment [2] (setting [4]), the activity at 0.05 µM is 80% and the activity at 0.5 µM is 50%.
`COC(=O)C(CC(C)C)Nc1cccc2c1C(=O)c1sccc1CS2(=O)=O` (stereo not shown) [Compound 5-7, 5,5-Dioxo-9-{[1-(methoxycarbonyl)-3-methylbutyl]amino}-4,10-dihydrothieno[3,2-c][1]benzothiepin-10-one]: in experiment [2] (setting [4]), the activity at 0.05 µM amounted to 67% and the activity at 0.5 µM was determined as 30%.
`COC(=O)C(Cc1ccccc1)Nc1cccc2c1C(=O)c1sccc1CS2(=O)=O` (stereo not shown) [Compound 5-8, 5,5-Dioxo-9-{[1-(methoxycarbonyl)-2-phenylethyl]amino}-4,10-dihydrothieno[3,2-c][1]benzothiepin-10-one]: in experiment [2] (setting [4]), the activity at 0.05 µM came out at 92% and the activity at 0.5 µM amounted to 69%.
In experiment [2] (setting [4]), `O=C1c2sccc2CS(=O)(=O)c2cccc(SCc3ccccc3)c21` [Compound 6-1, 9-Benzylthio-5,5-dioxo-4,10-dihydrothieno[3,2-c][1]benzothiepin-10-one] had an activity at 0.05 µM of 75% and an activity at 0.5 µM of 39%.
Consider `O=C1c2sccc2CS(=O)(=O)c2cccc(OCc3ccccc3)c21` [Compound 6-2, 9-Benzyloxy-5,5-dioxo-4,10-dihydrothieno[3,2-c][1]benzothiepin-10-one], for which, in experiment [2] (setting [4]), the activity at 0.05 µM was found to be 94% and the activity at 0.5 µM worked out at 73%.
`COc1cc(C(=O)OCCCN2CCCN(CCCOC(=O)c3cc(OC)c(OC)c(OC)c3)CC2)cc(OC)c1OC` [Dilazep, reference compound]: the “Wet weight of fecal pellets” value in experiment [1] (setting [5]) stood at 0.84 ± 0.17 g.
Take `OCCN(CCO)c1nc(N2CCCCC2)c2nc(N(CCO)CCO)nc(N3CCCCC3)c2n1` [Dipyridamole, reference compound]: the “Wet weight of fecal pellets” value in experiment [1] (setting [5]) worked out at 0.59 ± 0.15 g.
Turning to `NC(=O)C1CN(CCCCC(c2ccc(F)cc2)c2ccc(F)cc2)CCN1CC(=O)Nc1c(Cl)cc(N)cc1Cl` (stereo not shown) [Draflazine, reference compound], the “Wet weight of fecal pellets” value in experiment [1] (100 mg/kg p.o. 1 hour before restraint stress, control 1.06 ± 0.11 g) worked out at 0.43 ± 0.13 g.
With `CCOc1cc2nc(N3CCOCC3)nc(N3CCC(n4c(=O)c5cc(C)ccc5n(C)c4=O)CC3)c2cc1OCC` [KF24345, reference compound], the “Wet weight of fecal pellets” value in experiment [1] (setting [3]) amounted to 0.48 ± 0.14 g.
`O=[N+]([O-])c1ccc(CSc2ncnc3c2ncn3C2OC(CO)C(O)C2O)cc1` (stereo not shown) [Nitrobenzylthioinosine, S6-(4-nitrobenzyl)mercaptopurine riboside, reference compound]: the “adenosine uptake in HEK293 cells (in words)” value in experiment [2] (100 nmol/L, concentration at which only ENT-1 is inhibited) is “almost completely inhibited”. In experiment [2] (Homo sapiens, 1 min, 100 nmol/L compound, [3H]adenosine uptake relative to 100% of control, HEK293 cells), this compound came in with an activity at 0.1 µM of 8%. This compound also displayed an activity at 0.5 µM in experiment [2] (setting [4]) of 4%.
For the compound `Cn1cc(C(=O)[C@@H]2CCc3nc[nH]c3C2)c2ccccc21` [YM060, reference compound], the “Wet weight of fecal pellets” value in experiment [1] (0.1 mg/kg 1 hour before restraint stress, control 1.24 ± 0.23 g) is 0.43 ± 0.11 g.
